# Measurements: US20170204380A1, “GLYCOSYL TRANSFERASES AND THEIR USES” (TECHNISCHE UNIVERSITAT MUNCHEN, priority 2014, published 2017)
# Experiments:
# VvGT16 [1] = target: T1, VvGT16 (Vitis vinifera, UniProt F6HTJ4)
# Procedure: The measurements were performed under the following conditions. […] Radioactivity was determined by LSC.
# VvGT14a [2] = target: T2, VvGT14a (Vitis vinifera, UniProt F6H0R6); details: VvGT14a versus UGT85B1
# VvGT15a [3] = target: T3, VvGT15a (Vitis vinifera, UniProt A0ABY9C1E0); experiment: Enantioselectivity by chiral phase SPME-GC-MS after hydrolysis of the formed glucoside; assay type: biochemical; details: racemic substrate, prolonged incubation (24 h)
# Procedure: (§1) To determine the enantioselectivity of VvGT14 and VvGT15 the enantiomeric ratio of glucosidically bound citronellol and linalool was determined by enantioselective GC-MS. Following the incubation, residual citronellol and linalool were completely removed by extraction with dichloromethane. Chronellyl β-D-glucoside which remained in the aqueous phase was hydrolyzed by HCl (2 mL, 0.1 M, pH 1) for one hour at 100° C. to release citronellol (Skouroumounis and Sefton, 2000). In case of linalyl β-D-glucoside an enzymatic hydrolysis (AR 2000, citric acid buffer pH 4, 24 h) was applied due to the instability of linalool in acid solutions (Williams et al., 1982). […] After hydrolysis, citronellol and linalool were analyzed by SPME-GC-MS as described above.
# (§2) GC-MS analysis was performed with a Varian GC-450 coupled to a Varian MS-240 ion-trap employing a Phenomenex Zebron ZB-WAXplus column (30 m×0.25 mm×0.25 μm, Aschaffenburg, Germany). Helium flow rate was 1 mL/min. The analysis was carried out in split mode (liquid injections) or splitless mode (SPME measurements) with 220° C. injector temperature. EI (electron impact ionization)-MS spectra were recorded from m/z 40 to 300 (ionization energy 70 eV; trap temperature 170° C.). The oven temperature program was 60° C. (3 min), 10° C./min up to 250° C. (5 min). In case of SPME measurements, liberated aglycones were isolated for 10 min at 60° C. using a fiber coated with a 85 μm film of polyacrylate (SUPELCO, Bellefonte, USA). After extraction the SPME fiber was desorbed for 10 min at 250° C. in the injection port of the GC-MS system and the column oven program was carried out as described above. Enantioselective GC-MS analysis was performed with a Varian GC-450 coupled to a Varian MS-240 ion-trap. The column was a DiAcB (heptakis-(2,3-di-O-acetyl-6-O-tert.-butyldimethylsilyl)-B-cyclodextrin), 26 m×0.32 mm i.d. with a 0.1 μm film. […] GC-MS measurements were recorded in full scan mode. Selected ion monitoring (SIM) mode was used for quantification.
# VvGT14a [4] = target: T2, VvGT14a; experiment: as above; assay type: biochemical; details: racemic substrate, prolonged incubation (24 h)
# Procedure: as §1, §2
# VvGT15c = VvGT15c (Vitis vinifera, UniProt A0ABY9C1E0); experiment: Substrate screening, radiochemical analysis with UDP-[14C]glucose; assay type: biochemical
# Procedure: (§3) In the initial screening, each reaction mixture (200 μL in total) contained Tris-HCl buffer (100 mM, pH 8, 10 mM 2-mercaptoethanol), 37 pmol UDP-[^14C]glucose (0.01 μCi, Biotrend, Köln, Germany), substrate (50 μL of a 1 mg/mL stock solution) and purified protein (0.5-0.8 μg/μL). […] The organic phase was mixed with 2 mL Pro Flow P+ cocktail (Meridian Biotechnologies Ltd., Epsom, UK) and radioactivity was determined by liquid scintillation counting (LSC, Tri-Carb 2800TR, Perkin Elmer, Waltham Mass., USA). Additionally, negative controls without substrate were performed.
# (§4) The recombinant proteins were expressed with an N-terminal GST-tag, affinity purified and verified by SDS-PAGE and Western Blot using GST-specific antibody.
# VvGT15b = VvGT15b (Vitis vinifera, UniProt A0ABY9C1E0); experiment: as above; assay type: biochemical
# Procedure: as §3, §4
# VvGT15a [5] = target: T3, VvGT15a; experiment: as above; assay type: biochemical
# Procedure: as §3, §4
# VvGT14a [6] = target: T2, VvGT14a; experiment: as above; assay type: biochemical
# Procedure: as §3, §4
# VvGT16 [7] = target: T1, VvGT16; experiment: as above; assay type: biochemical
# Procedure: as §3, §4
# [8] = UDP-glucose fixed 512.5 μM (for UDP-glucose: geraniol fixed 1.25 mM), Tris-HCl pH 8.5, 30° C.
# T1 sequence (F6HTJ4 entry or part of it): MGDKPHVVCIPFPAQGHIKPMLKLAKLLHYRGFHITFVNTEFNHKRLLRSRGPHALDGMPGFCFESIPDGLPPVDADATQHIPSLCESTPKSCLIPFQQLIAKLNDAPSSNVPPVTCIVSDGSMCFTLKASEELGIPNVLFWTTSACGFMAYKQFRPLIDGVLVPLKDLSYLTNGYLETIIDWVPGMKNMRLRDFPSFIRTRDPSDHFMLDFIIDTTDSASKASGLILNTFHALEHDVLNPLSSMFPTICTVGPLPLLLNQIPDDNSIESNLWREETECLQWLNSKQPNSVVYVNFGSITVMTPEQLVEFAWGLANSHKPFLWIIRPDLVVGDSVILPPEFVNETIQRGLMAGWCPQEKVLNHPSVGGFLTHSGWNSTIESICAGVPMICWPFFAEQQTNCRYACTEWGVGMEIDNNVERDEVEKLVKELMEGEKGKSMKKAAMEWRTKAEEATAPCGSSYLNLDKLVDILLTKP
# T2 sequence (F6H0R6 entry or part of it): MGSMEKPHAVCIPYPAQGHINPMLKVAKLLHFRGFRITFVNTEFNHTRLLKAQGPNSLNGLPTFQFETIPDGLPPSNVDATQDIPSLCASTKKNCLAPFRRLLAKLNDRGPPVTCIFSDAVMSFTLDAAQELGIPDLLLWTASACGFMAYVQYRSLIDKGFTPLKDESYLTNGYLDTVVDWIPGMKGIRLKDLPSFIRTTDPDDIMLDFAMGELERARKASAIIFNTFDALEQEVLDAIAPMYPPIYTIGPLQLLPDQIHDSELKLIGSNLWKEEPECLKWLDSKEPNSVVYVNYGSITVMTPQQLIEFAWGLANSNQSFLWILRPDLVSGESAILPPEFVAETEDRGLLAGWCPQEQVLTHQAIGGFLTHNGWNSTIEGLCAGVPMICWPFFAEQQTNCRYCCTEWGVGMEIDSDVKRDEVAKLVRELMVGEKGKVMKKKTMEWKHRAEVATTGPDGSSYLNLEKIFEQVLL
# T3 sequence (A0ABY9C1E0 entry or part of it): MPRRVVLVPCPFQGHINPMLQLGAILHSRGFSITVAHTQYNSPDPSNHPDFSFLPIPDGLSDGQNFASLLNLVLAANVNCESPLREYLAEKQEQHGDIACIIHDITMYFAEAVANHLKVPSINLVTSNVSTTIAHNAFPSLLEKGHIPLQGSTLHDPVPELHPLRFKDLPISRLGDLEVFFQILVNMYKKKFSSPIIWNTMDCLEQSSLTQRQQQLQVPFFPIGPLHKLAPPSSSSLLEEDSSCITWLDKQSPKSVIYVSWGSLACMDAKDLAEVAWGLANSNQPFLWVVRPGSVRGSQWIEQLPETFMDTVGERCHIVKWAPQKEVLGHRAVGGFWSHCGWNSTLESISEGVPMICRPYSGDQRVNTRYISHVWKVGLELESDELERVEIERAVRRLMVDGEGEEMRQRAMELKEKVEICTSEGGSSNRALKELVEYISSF
# VvGT15c, sequence (A0ABY9C1E0 entry or part of it): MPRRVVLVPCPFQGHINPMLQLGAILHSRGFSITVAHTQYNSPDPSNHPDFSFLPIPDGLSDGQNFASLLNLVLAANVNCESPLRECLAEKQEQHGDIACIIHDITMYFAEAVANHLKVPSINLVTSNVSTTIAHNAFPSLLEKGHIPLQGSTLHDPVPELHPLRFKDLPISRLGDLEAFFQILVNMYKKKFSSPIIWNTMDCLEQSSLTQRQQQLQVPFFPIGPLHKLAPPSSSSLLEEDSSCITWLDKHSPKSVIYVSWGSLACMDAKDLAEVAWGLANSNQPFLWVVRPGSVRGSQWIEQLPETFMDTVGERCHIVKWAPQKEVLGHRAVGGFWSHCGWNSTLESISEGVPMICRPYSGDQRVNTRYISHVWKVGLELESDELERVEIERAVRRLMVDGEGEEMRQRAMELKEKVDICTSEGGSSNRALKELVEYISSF
smiles,measurement,setting,value
"CC(C)=CCCC(C)CCO (racemic) [citronellol (rac), (R,S)-3,7-dimethyl-6-octen-1-ol]",Km,VvGT16 [1]; [8],108 ± 2.5 µM
same,kcat,VvGT16 [1]; [8],0.008 s⁻¹
same,transformation of R- and S-citronellol (in words),VvGT16 [1]; radiochemical assays,same efficiency
same,kcat/KM of VvGT14a higher than the value for UGT85B1 from Sorghum bicolor,VvGT14a [2],4 fold
same,"enantiomeric preference, aglycone liberated from the formed glucoside",VvGT15a [3],no enantio-discrimination
same,"enantiomeric preference, aglycone liberated from the formed glucoside",VvGT14a [4],no enantio-discrimination
same,conversion as substrate (in words),VvGT15c,glucosylated primarily
same,conversion as substrate (in words),VvGT15b,glucosylated primarily
same,conversion as substrate (in words),VvGT15a [5],glucosylated primarily
same,conversion as substrate (in words),VvGT14a [6],preferred
same,conversion as substrate (in words),VvGT16 [7],transformed
"C=CC(C)(O)CCC=C(C)C (racemic) [linalool (rac), (R,S)-3,7-dimethyl-1,6-octadien-3-ol]","enantiomeric preference, aglycone liberated from the formed glucoside",VvGT14a [4],slight enrichment of the R-enantiomer
same,conversion as substrate (in words),VvGT14a [6],catalytic activity
